Measurements from patent US20250228835A1, “PYRIDINYLOXYPYRIDINES AND RELATED COMPOUNDS AND THEIR USE IN TREATING MEDICAL CONDITIONS” (Rectify Pharmaceuticals, Inc., priority 2024, published 2025).

Key:
ABCA4 P1380L = biological target: T1, ABCA4 P1380L (Homo sapiens, UniProt P78363, P1380L); assay: A4 correction dose-response assay: ABCA4 P1380L HiBit protein expression; format: cell-based; settings: HEK-293 cells stably expressing HiBit-tagged ABCA4 P1380L; 24 h treatment; top concentration 30 μM; read-out: ABCA4 P1380L EC50, Emax
T1 construct: expressed in transfected cells
T1 sequence (P78363 whole entry P1380L): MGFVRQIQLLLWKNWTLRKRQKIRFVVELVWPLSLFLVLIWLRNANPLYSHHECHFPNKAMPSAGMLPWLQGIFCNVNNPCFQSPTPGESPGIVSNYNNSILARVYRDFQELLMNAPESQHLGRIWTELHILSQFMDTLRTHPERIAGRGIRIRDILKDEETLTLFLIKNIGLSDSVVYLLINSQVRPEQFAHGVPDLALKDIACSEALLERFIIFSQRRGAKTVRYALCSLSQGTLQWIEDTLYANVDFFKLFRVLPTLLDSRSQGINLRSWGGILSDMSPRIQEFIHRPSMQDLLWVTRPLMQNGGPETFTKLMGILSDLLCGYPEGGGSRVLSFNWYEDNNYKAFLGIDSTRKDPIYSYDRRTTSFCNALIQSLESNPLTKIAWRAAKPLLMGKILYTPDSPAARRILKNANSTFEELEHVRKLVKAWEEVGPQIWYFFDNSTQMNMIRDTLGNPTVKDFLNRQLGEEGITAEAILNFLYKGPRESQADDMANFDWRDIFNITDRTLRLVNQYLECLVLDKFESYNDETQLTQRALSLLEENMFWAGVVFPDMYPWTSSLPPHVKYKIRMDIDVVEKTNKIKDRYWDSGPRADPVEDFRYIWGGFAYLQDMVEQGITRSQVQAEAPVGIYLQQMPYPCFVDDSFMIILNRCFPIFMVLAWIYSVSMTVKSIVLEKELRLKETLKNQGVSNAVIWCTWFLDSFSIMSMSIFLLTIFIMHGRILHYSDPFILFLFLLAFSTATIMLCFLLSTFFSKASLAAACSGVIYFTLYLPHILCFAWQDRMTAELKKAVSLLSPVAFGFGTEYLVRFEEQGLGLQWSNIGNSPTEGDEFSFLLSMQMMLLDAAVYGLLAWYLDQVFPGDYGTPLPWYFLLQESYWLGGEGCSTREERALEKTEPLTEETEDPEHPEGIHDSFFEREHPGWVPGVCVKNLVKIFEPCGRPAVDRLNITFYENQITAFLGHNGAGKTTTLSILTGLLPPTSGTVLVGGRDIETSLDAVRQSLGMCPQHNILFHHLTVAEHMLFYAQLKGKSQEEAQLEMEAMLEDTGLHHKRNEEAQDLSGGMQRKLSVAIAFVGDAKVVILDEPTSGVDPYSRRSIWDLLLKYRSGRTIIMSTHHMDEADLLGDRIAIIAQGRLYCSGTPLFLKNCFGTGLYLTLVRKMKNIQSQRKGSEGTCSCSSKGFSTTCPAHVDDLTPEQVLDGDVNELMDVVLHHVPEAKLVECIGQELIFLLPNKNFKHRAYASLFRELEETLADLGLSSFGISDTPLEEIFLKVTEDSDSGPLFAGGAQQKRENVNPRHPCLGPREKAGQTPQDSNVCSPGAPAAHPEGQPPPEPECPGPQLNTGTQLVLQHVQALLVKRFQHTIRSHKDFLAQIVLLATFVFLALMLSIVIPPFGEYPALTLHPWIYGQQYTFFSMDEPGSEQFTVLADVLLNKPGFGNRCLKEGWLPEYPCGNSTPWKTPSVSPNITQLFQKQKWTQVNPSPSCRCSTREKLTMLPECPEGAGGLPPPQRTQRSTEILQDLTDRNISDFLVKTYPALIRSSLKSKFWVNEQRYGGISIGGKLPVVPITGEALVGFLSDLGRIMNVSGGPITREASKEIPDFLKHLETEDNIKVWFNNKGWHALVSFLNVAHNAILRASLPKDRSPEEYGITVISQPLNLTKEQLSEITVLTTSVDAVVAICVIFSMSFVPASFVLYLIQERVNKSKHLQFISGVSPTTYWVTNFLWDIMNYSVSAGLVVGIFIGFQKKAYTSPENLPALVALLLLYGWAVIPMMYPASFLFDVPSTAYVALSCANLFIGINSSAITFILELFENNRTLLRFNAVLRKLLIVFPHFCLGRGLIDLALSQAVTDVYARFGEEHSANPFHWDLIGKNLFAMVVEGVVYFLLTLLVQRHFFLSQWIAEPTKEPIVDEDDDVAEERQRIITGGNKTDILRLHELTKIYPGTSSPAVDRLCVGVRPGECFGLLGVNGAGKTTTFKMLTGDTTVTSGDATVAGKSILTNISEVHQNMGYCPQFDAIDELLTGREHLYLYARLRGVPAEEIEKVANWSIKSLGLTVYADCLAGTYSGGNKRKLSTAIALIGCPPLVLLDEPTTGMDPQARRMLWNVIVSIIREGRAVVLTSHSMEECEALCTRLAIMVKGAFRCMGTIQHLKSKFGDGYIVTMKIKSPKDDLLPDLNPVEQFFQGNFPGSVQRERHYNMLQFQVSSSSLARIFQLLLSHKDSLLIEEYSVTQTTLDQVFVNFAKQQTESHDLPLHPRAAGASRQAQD
In short: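 Cells transfected with HiBit-tagged human ABCA4 P1380L cDNA were treated for 24 h at 37°C with an eleven-point dilution series (top final 30 μM, 0.3% DMSO).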

ABCB4 WT = biological target: T2, ABCB4 WT (Homo sapiens, UniProt P21439); assay: ABCB4 WT assay: HiBit protein expression; format: cell-based; settings: HEK-293 cells stably expressing HiBit-tagged ABCB4 WT; 24 h treatment; top concentration 30 μM; read-out: ABCB4 WT EC50, Emax
T2 construct: expressed in transfected cells
T2 sequence (P21439 whole entry): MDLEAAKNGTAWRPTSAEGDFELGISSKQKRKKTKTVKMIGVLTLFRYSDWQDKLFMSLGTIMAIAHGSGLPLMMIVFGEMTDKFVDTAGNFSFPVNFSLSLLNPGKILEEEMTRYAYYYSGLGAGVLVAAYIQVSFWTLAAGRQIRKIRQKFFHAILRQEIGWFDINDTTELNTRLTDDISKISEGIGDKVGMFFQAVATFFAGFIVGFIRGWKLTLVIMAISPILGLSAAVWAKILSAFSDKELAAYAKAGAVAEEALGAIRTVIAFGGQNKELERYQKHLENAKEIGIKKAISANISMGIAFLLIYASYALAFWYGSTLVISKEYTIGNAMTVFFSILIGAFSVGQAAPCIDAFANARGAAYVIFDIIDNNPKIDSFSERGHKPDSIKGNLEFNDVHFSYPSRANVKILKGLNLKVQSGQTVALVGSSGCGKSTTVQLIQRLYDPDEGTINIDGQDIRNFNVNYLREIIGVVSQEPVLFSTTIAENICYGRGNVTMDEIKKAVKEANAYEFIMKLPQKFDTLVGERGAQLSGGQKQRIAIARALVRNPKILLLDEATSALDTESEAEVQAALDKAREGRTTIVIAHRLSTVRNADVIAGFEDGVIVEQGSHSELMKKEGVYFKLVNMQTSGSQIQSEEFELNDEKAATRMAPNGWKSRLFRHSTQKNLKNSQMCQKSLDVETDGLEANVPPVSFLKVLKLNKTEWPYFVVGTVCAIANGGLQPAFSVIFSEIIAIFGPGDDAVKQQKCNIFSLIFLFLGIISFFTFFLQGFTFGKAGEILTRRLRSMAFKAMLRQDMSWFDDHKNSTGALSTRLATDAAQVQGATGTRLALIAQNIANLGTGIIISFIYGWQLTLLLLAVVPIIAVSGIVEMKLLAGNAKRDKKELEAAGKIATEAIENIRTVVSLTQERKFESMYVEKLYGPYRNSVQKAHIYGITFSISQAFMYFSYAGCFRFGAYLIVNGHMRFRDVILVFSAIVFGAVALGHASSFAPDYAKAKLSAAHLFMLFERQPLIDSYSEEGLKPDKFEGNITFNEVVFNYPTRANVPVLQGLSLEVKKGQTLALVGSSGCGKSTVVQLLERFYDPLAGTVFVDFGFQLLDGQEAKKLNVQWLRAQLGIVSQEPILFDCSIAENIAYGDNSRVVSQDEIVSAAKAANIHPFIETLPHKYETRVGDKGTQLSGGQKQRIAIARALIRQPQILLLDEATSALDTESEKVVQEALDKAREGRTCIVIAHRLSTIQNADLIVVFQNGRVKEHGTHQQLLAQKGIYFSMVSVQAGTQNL
In short: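 HEK-293 cells stably expressing HiBit-tagged human ABCB4 WT, treated 24 h at 37 °C with 11-dose 3-fold dilutions, top final 30 μM in 0.3% DMSO. HiBit lytic reagent luminescence read after 1 h at 25 °C; Emax and EC50 derived.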

| Compound | EC50 (ABCA4 P1380L) | EC50 (ABCB4 WT) |
| --- | --- | --- |
| Cc1cc(C2CC2)nc(C)c1Oc1nc(-c2ccnc(C#N)c2)ccc1NS(C)(=O)=O [Compound I-213] | < 1000 nM | < 1 µM |
| Cc1cc(C)c(Oc2nc(-c3cncc(C4COC4)c3)ccc2NS(C)(=O)=O)c(C)n1 [Compound I-216] | > 25000 nM | < 1 µM |
| CCS(=O)(=O)Nc1ccc(-c2cncc(C#N)c2)nc1Oc1c(C)cc(C(F)(F)F)nc1C [Compound I-217] | < 1000 nM | < 1 µM |
| Cc1cc(C(F)(F)F)nc(C)c1Oc1nc(-c2cncc(C#N)c2)ccc1NS(=O)(=O)C1CC1 [Compound I-218] | < 1000 nM | < 1 µM |
| Cc1cc(C(F)(F)F)nc(C)c1Oc1nc(-c2ccnc(C#N)c2)ccc1NS(C)(=O)=O [Compound I-219] | < 1000 nM | < 1 µM |
| Cc1cc(C)c(Oc2nc(-c3cncc(C(C)(C)O)c3)ccc2NS(C)(=O)=O)c(C)n1 [Compound I-220] | > 25000 nM | ≥ 25 µM |
| Cc1cc(C)c(Oc2nc(-c3cncc(C#N)c3)ccc2N2CCCS2(=O)=O)c(C)n1 [Compound I-221] | 1000 to 10000 nM | ≥ 25 µM |
| COc1cc(C)c(Oc2nc(-c3cncc(C#N)c3)ccc2NS(C)(=O)=O)c(C)n1 [Compound I-222] | < 1000 nM | < 1 µM |
| Cc1nc(C)c(C(F)(F)F)cc1Oc1nc(-c2cncc(C#N)c2)ccc1NS(C)(=O)=O [Compound I-225] | > 25000 nM | < 25 µM |
| Cc1cc(Oc2nc(-c3cncc(C#N)c3)ccc2NS(C)(=O)=O)c(C)nc1C [Compound I-226] | > 25000 nM | < 1 µM |
| Cc1cc(C)c(Oc2nc(-c3cncc(CO)c3)ccc2NS(C)(=O)=O)c(C)n1 [Compound I-227] | 1000 to 10000 nM | < 25 µM |
| Cc1cc(C)c(Oc2nc(-c3cncc(C#N)c3)ccc2NS(=O)(=O)C2COC2)c(C)n1 [Compound I-228] | < 1000 nM | < 25 µM |
| Cc1nc(C)c(C2CC2)cc1Oc1nc(-c2cncc(C#N)c2)ccc1NS(C)(=O)=O [Compound I-229] | 1000 to 10000 nM | < 25 µM |
| Cc1cc(C(F)F)nc(C)c1Oc1nc(-c2cncc(C#N)c2)ccc1NS(C)(=O)=O [Compound I-230] | < 1000 nM | < 1 µM |
| COCc1cncc(-c2ccc(NS(C)(=O)=O)c(Oc3c(C)cc(C)nc3C)n2)c1 [Compound I-231] | 1000 to 10000 nM | 1 to 10 µM |
| Cc1cc(C)c(Oc2nc(-c3cncc(C4CC4)c3)ccc2NS(C)(=O)=O)c(C)n1 [Compound I-232] | < 25000 nM | < 25 µM |
| Cc1nc(C)c(Oc2nc(-c3cncc(C#N)c3)ccc2NS(C)(=O)=O)c(C)n1 [Compound I-234] | < 1000 nM | 1 to 10 µM |
| Cc1cc(C2CC2)nc(C)c1Oc1nc(-c2cncc(C#N)c2)ccc1NS(=O)(=O)C1COC1 [Compound I-235] | < 25000 nM | < 25 µM |
| Cc1cc(C2CC2)nc(C)c1Oc1nc(-c2cncc(Cl)c2)ccc1NS(=O)(=O)C1COC1 [Compound I-236] | < 25000 nM | < 25 µM |
| Cc1cc(C)c(Oc2nc(-c3cncc(Cl)c3)ccc2NS(=O)(=O)C2COC2)c(C)n1 [Compound I-237] | < 1000 nM | < 25 µM |
